In patent publication US20110281933A1, “METHODS AND COMPOSITIONS FOR THE MANAGEMENT OF CARDIOVASCULAR DISEASE WITH OLIGONUCLEOTIDES” (Saint Louis University, priority 2010, published 2011):

Columns and labels:
[1] = system: miR-33; assay: Reverse cholesterol transport with [3H]-cholesterol-loaded macrophages (Example 10); assay type: in vivo, C57BL/6 mice; conditions: 5 mpk
Description: (A) Percentage of total injected dpm in the plasma of mice treated with scrambled or anti-miR-33 oligonucleotides (5 mpk, twice a week for 2 weeks), at 6, 24 at 48 h post-injection of [3H]-cholesterol-acLDL-loaded macrophages. *P<0.05 (unpaired T-test): **P<0.01 (unpaired T-test). (B) Percentage of total injected dpm in the liver of the same mice. (C) Percentage of total injected dpm in the be recovered from the gallbladder of the same mice. **P<0.01 (unpaired T-test). (D) Percentage of total injected dpm in the feces of the same mice. **P<0.01 (unpaired T-test).
(§1) Murine Studies. Male C57Bl/6J mice were obtained from Jackson Laboratories, and maintained in a 12 hour/12 hour light/dark cycle with unlimited access to chow and water. In examples 1-5, animals (n=6-8 per group) were infused with adenoviral vectors (2×10^9 pfu) via tail vein injection. Blood was collected 5 days post-infusion, and total cholesterol and HDL-cholesterol were assayed enzymatically with the Cholesterol E and HDL-cholesterol E kits from Waco Chemicals. In example 6-10 animals (8-10 week old, n=6 per group, unless noted otherwise) were infused via tail vein injection with adenoviral vectors (2×10^9 pfu) or antisense oligonucleotides (5 mpk, 2 consecutive days). Where indicated, mice were fed a 21% fat, 1% cholesterol, 0.5% cholate diet (Purina 5A8E). Tissues and bile were collected following overnight fasting. RCT experiments were performed as described 28. Briefly, mice were injected i.v. with oligonucleotides (5 mpk) twice for 2 weeks, and then injected i.p. with 1-1.5×10^6 [^3H]-cholesterol-loaded bone marrow-derived macrophages. Blood samples were collected at 6, 24 and 48 h after the injection of the cells. Liver, bile and the feces produced during the last 48 h were collected and flash-frozen until used. The amount of radiolabeled sterols was determined by scintillation. All studies involving mice were approved by the IACUC at Saint Louis University.
ANTI-miR-33 Treatment Results In Increased Reverse Cholesterol Transport. Biliary secretion is an essential component of the reverse cholesterol transport (RCT) pathway (Nijstad at al., (2011) Gastroenterology 140, 1043-1051) by which extrahepatic cholesterol is shuttled to the liver, secreted into bile and excreted through feces (Khera and Rader, (2010) Curr Atheroscler Rep 12, 73-81; Rader et al., (2009) J Lipid Res 50 Suppl, S189-194; Wang et al., (2007) J Clin Invest 117, 2216-2224; Wang and Rader, (2007) J Biol Chem 280, 8742-8747). An additional, liver-independent ROT pathway has been proposed that removes circulating cholesterol through the intestine directly into feces (van der Veen et al., (2009) J Biol Chem 284, 19211-19219). The inventor reasoned that the changes in be secretion observed following manipulation of miR-33 levels will result in altered RCT. […] Analysis of the bile recovered from the gallbladder confirmed that bile secretion is increased after suppression of miR-33 expression. […] Finally, the recovery of labeled sterols in the feces increased ˜2-fold in these same mice, compared to control animals (FIG. 8D).

[2] = system: miR-33; assay: Silencing miR-33 rescues liver damage induced by simvastatin and cholate diet (Example 9); assay type: in vivo, mice
Source text: Samples were collected after 7 days on the diet, or when mice appeared moribund. […] (B) Percentage of body weight, compared to the initial mass of each animal. Data are shown as mean±SD. (C) Macroscopic appearance of livers. (D) Liver to total body mass ratios. […] (E) Appearance of plasma. […] (G) Relative expression of hepatic canalicular transporters (upper panel) and other genes involved in bile acid and sterol homeostasis (bottom panel).
(§2) RNA and protein analysis. RNA was isolated from cells with Trizol reagent, using a slight modification of the manufacturer's protocol to preserve miRNAs. Briefly, following homogenization in 2 mL of Trizol, […] of chloroform and […] if 2 mol/L sodium acetate pH 4.2 were added before the separation of the organic and aqueous phases. The latter was combined with […] of acid phenol:chloroform:[…], and centrifuged again. RNAs in the aqueous phase was then precipitated with 3 mL of ethanol overnight at 4° C. After centrifugation, the RNA pellet was resuspended in water and stored at −80° C. until use. Alternatively, RNAs were isolated using the mirVana miRNA Isolation Kit (Ambion). cDNAs were generated from 5 μg of DNase1-treated RNA using Superscript III and Random hexamers (Invitrogen). Real-time PCR was done with Sybr green reagent (Roche), using a LightCycler 480 real-time PCR detection system (Roche). Values were normalized to GAPDH and calculated using the comparative CT method. Protein levels were determined by Western blot, using 50 ug total liver protein extract, and a 1:1,000 dilution of anti-ABCA1 antibody (Novus Biologicals), following standard protocols.
as §1, with “In examples 1-5, animals (n=6-8 per group) were infused with adenoviral vectors (2×10^9 pfu) via tail vein injection.” left out, “In example 6-10 animals (8-10 week old, n=6 per group, unless noted otherwise) were infused via tail vein injection with adenoviral vectors (2×10^9 pfu) or antisense oligonucleotides (5 mpk, 2 consecutive days). Where indicated, mice were fed a 21% fat, 1% cholesterol, 0.5% cholate diet (Purina 5A8E).” left out
Similarly bile and plasma were extracted in the presence of internal standards for each lipid class. Id.
The inventor next tested whether silencing miR-33 could rescue mammals with statin induced ERIC or cholestasis. […] Finally, the inventor studied the mRNA levels of selected hepatic genes (FIG. 10G).

[3] = system: miR-33; assay: Bile secretion in vivo after anti-miR-33 (Example 6); set-up: species or system mice; conditions: 5 mpk i.v.
Source text: (A) Pooled bile recovered from the gallbladder of mice (n=5) injected with scrambled or anti-miR-33 oligonucleotides (5 mpk, i.v.) for 2 consecutive days. Mice were then kept for 7 days and fasted overnight before sample collection. (B) Levels of phosphatidylcholine (PC), cholesterol (chol) and bile acids present in pooled bile. (C) Relative expression of hepatic canalicular transporters in mice (n=5) following silencing of miR-33. Data are shown as mean±SD. *P<0.05 (unpaired T-test).
as §2, §1
Anti-miR-33 increases bile secretion in vivo. In an effort to understand the in vivo physiological importance of miR-33, the inventor injected mice with (5 mpk) of locked nucleic acid (LNA) scrambled sequence or LNA anti-miR-33 oligonucleotides 5-[…]-3′ (SEQ ID NO: 8) in saline (0.9% NaCl) via tail vein injection, at 5 mg/Kg (mpk) body weight. Mice were then kept with unlimited access to water and regular chow for a week. The amount of bile collected from the gallbladders of fasted mice receiving anti-miR-33 oligonucleotides was almost double of that collected from control mice (FIG. 6A). […] Next, the inventor tested the expression of several hepatocyte canalicular transporters that are known to mediate bile secretion.

[4] = system: C57BL/6 mice on 1% cholesterol, 0.5% cholate diet; assay: Simvastatin and cholate diet induced liver damage (Example 8); assay type: in vivo; conditions: 50 mpk simvastatin vs saline
[5] = system: miR-33; assay: miR-33 silencing in vivo: hepatic ABCA1 and plasma HDL-cholesterol (Example 4); set-up: species or system C57BL/6 mice; conditions: 5 mg/Kg/day for 3 consecutive days, vs scrambled
Description: as §2
Murine Studies. Male C57Bl/6J mice were obtained from Jackson Laboratories, and maintained in a 12 hour/12 hour light/dark cycle with unlimited access to chow and water. In examples 1-5, animals (n=6-8 per group) were infused with adenoviral vectors (2×10^9 pfu) via tail vein injection. […] In example 6-10 animals (8-10 week old, n=6 per group, unless noted otherwise) were infused via tail vein injection with adenoviral vectors (2×10^9 pfu) or antisense oligonucleotides (5 mpk, 2 consecutive days). […] The amount of radiolabeled sterols was determined by scintillation. […]
miR-33 modulation of physiological sterol homeostasis in vivo. To put these latter results in a physiological context, scrambled or anti-miR-33 oligonucleotides were injected into the tail veins of C57BL/6 mice (5 mg/Kg/day for 3 consecutive days), and plasma lipoprotein and cholesterol levels determined 12 days after the infusion.

[6] = 150 mpk simvastatin and cholate diet
[7] = mice that survived at the end of the experiment, vs scrambled

Compound: 5′-TGCAACTACAATGCA-3′ (LNA modifications, further chemistry not given here; listed as Homo sapiens) [LNA anti-miR-33 oligonucleotide, locked nucleic acid antisense oligonucleotide targeted to both miR-33 and miR-33 preRNA]
- bile secretion (bile recovered from the gallbladder) [1]: is increased
- changes in body, liver or feces mass [1]: did not observe changes
- amount of labeled cholesterol in circulation ([1]; 6, 24, 48 h, vs control animals): increased
- amount of labeled sterols found in the liver ([1]; 48 h): did not statistically differ
- contents of labeled biliary sterols (dpm/μL of bile), increase ([1]; corrected for volume): 2 fold
- recovery of labeled sterols in the feces, increase ([1]; feces of last 48 h, vs control animals): ~2 fold
- survival ([2]; 5 mpk i.v. two consecutive doses, then 150 mpk simvastatin and cholate diet, n=10): with one exception, all mice receiving anti-miR-33 oligonucleotides survived for at least a week
- appearance of livers [2, 6]: appeared normal
- appearance of plasma [2, 6]: appeared clear
- hepatic free fatty acids, diglycerides, triglycerides and bile acids ([2]; 150 mpk simvastatin and cholate diet, vs control animals): marked decrease
- loss of body weight ([2]; 150 mpk simvastatin and cholate diet, vs scrambled): minimal loss
- hepatic expression of Atp8b1 [2, 7]: increased expression
- increased hepatic expression of Abcb11 or any other canalicular transporter [2, 7]: not
- liver/body mass ratio ([2]; vs control mice that succumbed to the diet and statin treatment): significantly lower
- amount of bile collected from the gallbladders ([3]; fasted mice after a week, vs control mice): almost double
- Abcb11 mRNA levels in liver ([3]; vs scrambled): significantly increased
- Atp8b1 mRNA levels in liver ([3]; vs scrambled): significantly increased
- concentration of phosphatidylcholine in bile ([3]; vs scrambled): slightly elevated
- mRNA levels of other canalicular transporters (Abcg5, Abcg8, Abcb4) in liver ([3]; vs scrambled): remained unchanged
- overall content of bile acids in pooled bile ([3]; vs scrambled): did not change
- overall content of cholesterol in pooled bile ([3]; vs scrambled): did not change

Compound: CCC(C)(C)C(=O)O[C@H]1C[C@@H](C)C=C2C=C[C@H](C)[C@H](CC[C@@H]3C[C@@H](O)CC(=O)O3)[C@H]21 [simvastatin]
- reduction of hepatic Abcb11 levels [4]: ~40%

Compound: anti-miR-33 oligonucleotides: anti-miR-33 oligonucleotides injected in Example 4; sequence and chemistry not stated there (antisense TGCAACTACAATGCA; LNA-modified, pattern not given here; listed as Homo sapiens)
- increase in HDL-cholesterol ([5]; 12 days after infusion): 10-15%
- increase in hepatic ABCA1 mRNA levels ([5]; tail vein): 2 fold
- increase in hepatic ABCA1 protein levels ([5]; tail vein): 2 fold
